Test results taken from patent US11072592B2, “Small molecules that enable cartilage rejuvenation” (The Regents of the University of California, priority 2015, dated 2021).
Entries after “also recorded” stand apart in the source; their conditions may differ.

Legend:
[1] = test system: MAPK, AKT, NF-κB pathways; assay: Western blot of MAPK, AKT and NF-κB signaling in adult pig articular chondrocytes; format: cell-based; settings: 24 hours
Protocol: FIGS. 30A-30B. […] (FIG. 30A) Adult pig articular chondrocytes were cultured for 24 hours with the indicated cytokines or RCGD 423 and the levels of pSTAT3 and MYC were measured with respect to histone H3. Representative data for other proteins in the MAPK (p38 and MEK1/2), AKT (phospho-AKT; pAKT) or NF-KB (NF-KB p65) are also shown. (FIG. 30B) Levels of transcription of genes indicative of a catabolic response were determined via quantitative PCR in adult pig articular chondrocytes treated with OSM, IL-6, TNF-α, LIF or RCGD 423. Data are represented at mean±SD.
Cartilage degeneration is generally considered a feed-forward process, in which small losses of chondrocytes result in microenvironmental changes including induction of an inflammatory response and other pro-catabolic events (Hunziker, 2002). In turn, these alterations in the joint milieu promote production of matrix degrading proteins including MMPs (collagenases) and proteins of the ADAMTS family (aggrecanases). LIF has been implicated in promoting this cycle of matrix destruction during the pathogenesis of osteoarthritis (Hui et al., 2000; Lotz et al., 1992), although its role in this process has been controversial. In order to better understand the mechanism of action of LIF, RCGD 423 and known pro-inflammatory cytokines in the promotion of degeneration, we stimulated adult pig articular chondrocytes with these molecules and quantitated the levels of activated downstream proteins that mediate the cellular signaling response (FIG. 30A).
Treated and non-treated ells were lysed in RIPA Lysis and Extraction Buffer (Pierce, Rockford, Ill.) containing protease inhibitors (Pierce) followed by sonication with a 15-second pulse at a power output of 2 using the VirSonic 100 (SP Industries Company, Warminster, Pa.). Protein concentrations were determined by BCA protein assay (Pierce). Proteins were resolved with SDS-PAGE utilizing 4-15% Mini-PROTEAN TGX Precast Gels and transferred to Trans-Blot Turbo Transfer Packs with a 0.2-μm pore-size nitrocellulose membrane. The SDS-PAGE running buffer, 4-15% Mini-PROTEAN TGX Precast Gels, Trans-Blot Turbo Transfer Packs with a 0.2-μm pore-size nitrocellulose membrane were purchased from Biorad (Hercules, Calif.). Nitrocellulose membranes were blocked in 5% nonfat milk in 0.05% (v/v) Tween 20 (PBST) (Corning, Manassas, Va.). Membranes were then incubated with primary antibodies phospho-STAT3 (#9131), MYC (#5605), NF-κB p65 (#D14E12), pAKT (#9272) Histone 3 (#9715) from Cell Signaling, (Danvers, Mass.); MEK1/2 (ab70613) and p38 (ab795) from Abcam (Cambridge, Mass.) overnight. After washing in PBS containing 0.05% (v/v) Tween 20 (PBST), membranes were incubated with Goat anti-Rabbit IgG (H+L) Secondary Antibody (Thermo Scientific Rockford, Ill.). After washing, membranes were developed with the Clarity Western ECL Blotting Substrate (Hercules, Calif.).

[2] = test system: adult human articular chondrocytes; assay: Transwell migration assay, adult human articular chondrocytes; format: cell-based
Protocol: Cells were plated on Millicell 8 μm Transwell® inserts (Millipore, Billerica, Mass.) in 12-well plates (Fisher Scientific, Pittsburgh, Pa.) and stimulated with 10 μM of RCGD 423, 10 μM MYC inhibitor (10058-F4) or 10 μM STAT3 inhibitor (STATTIC) from Tocris Bioscience (Bristol, UK). Cells that migrated across the membranes were quantified by counting after 48 hours of treatment.

Compound	NF-κB protein [1]	activation of AKT [1]	activation of the MAPK pathway [1]	migration / migratory potential [2]
Brc1ccc(Nc2nc(-c3ccccc3)cs2)cc1 [RCGD 423, N-(4-Bromophenyl)-4-phenyl-1,3-thiazol-2-amine]	did not activate AKT or stabilize	did not activate; also recorded: no activation	weakly activating	increased
LIF: interleukin 6 (IL-6)-class cytokine	–	stimulated the activation; also recorded: strong activation	weaker response	increased
